The source of these data is patent US7102009B2, “Substituted amine derivatives and methods of use” (Amgen Inc., priority 2001, dated 2006).

This experiment concerns Human Umbilical Vein Endothelial cells (VEGF-stimulated HUVEC proliferation). The experiment is described as follows: HUVEC Proliferation Assay (VEGF-stimulated). The format is cell-based. The note with it: VEGF 50 ng/mL, 72 h incubation, CyQuant readout, read-out: inhibited VEGF-stimulated HUVEC proliferation at a level below (IC50). On the procedure:
Human Umbilical Vein Endothelial cells are purchased from Clonetics, Inc., as cryopreserved cells harvested from a pool of donors. These cells, at passage 1, are thawed and expanded in EBM-2 complete medium, until passage 2 or 3. The cells are trypsinized, washed in DMEM+10% FBS+antibiotics, and spun at 1000 rpm for 10 min. Prior to centrifugation of the cells, a small amount is collected for a cell count. After centrifugation, the medium is discarded, and the cells are resuspended in the appropriate volume of DMEM+10% FBS+antibiotics to achieve a concentration of 3×10^5 cells/mL. Another cell count is performed to confirm the cell concentration. The cells are diluted to 3×10^4 cells/mL in DMEM+10% FBS+antibiotics, and 100 μL of cells are added to a 96-well plate. The cells are incubated at 37° C. for 22 h.
Prior to the completion of the incubation period, compound dilutions are prepared. Five-point, five-fold serial dilutions are prepared in DMSO, at concentrations 400-fold greater than the final concentrations desired. 2.5 μL of each compound dilution are diluted further in a total of 1 mL DMEM+10% FBS+antibiotics (400× dilution). Medium containing 0.25% DMSO is also prepared for the 0 μM compound sample. At the 22-hour timepoint, the medium is removed from the cells, and 100 μL of each compound dilution is added. The cells are incubated at 37° C. for 2-3 h.
During the compound pre-incubation period, the growth factors are diluted to the appropriate concentrations. Solutions of DMEM+10% FBS+antibiotics, containing either VEGF or bFGF at the following concentrations: 50, 10, 2, 0.4, 0.08, and 0 ng/mL are prepared. For the compound-treated cells, solutions of VEGF at 550 ng/mL or bFGF at 220 ng/mL for 50 ng/mL or 20 ng/mL final concentrations, respectively, are prepared since 10 μL of each will be added to the cells (110 μL final volume). At the appropriate time after adding the compounds, the growth factors are added. VEGF is added to one set of plates, while bFGF is added to another set of plates. For the growth factor control curves, the media on wells B4-G6 of plates 1 and 2 are replaced with media containing VEGF or bFGF at the varying concentrations (50-0 ng/mL). The cells are incubated at 37° C. for an additional 72 h.
At the completion of the 72 h incubation period, the medium is removed, and the cells are washed twice with PBS. After the second wash with PBS, the plates are tapped gently to remove excess PBS, and the cells are placed at −70° C. for at least 30 min. The cells are thawed and analyzed using the CyQuant fluorescent dye (Molecular Probes C-7026), following the manufacturer's recommendations. The plates are read on a Victor/Wallac 1420 workstation at 485 nm/530 nm (excitation/emission). Raw data are collected and analyzed using a 4-parameter fit equation in XLFit. IC50 values are then determined.

Take `CC(C)(C)c1ccc(NC(=O)c2cccnc2Nc2ccc3cn[nH]c3c2)cc1/C=C/CCN1CCCC1` [Example 55, N-[3-((1E)-4-Pyrrolidinylbut-1-enyl)-4-(tert-butyl)phenyl][2-(1H-indazol-6-ylamino)(3-pyridyl)]carboxamide]: the IC50 is less than 50 nM.

In the case of `CC(C)(C)c1ccc(NC(=O)c2cccnc2Nc2ccc3cn[nH]c3c2)cc1CCCN1CCCC1` [Example 56, N-[4-(tert-Butyl)-3-(3-pyrrolidinylpropyl)phenyl][2-(1H-indazol-6-ylamino)(3-pyridyl)]carboxamide], the IC50 is less than 50 nM.

`CC(C)(C)c1ccc(NC(=O)c2cccnc2Nc2ccc3cn[nH]c3c2)cc1CCCN1CCOCC1` [Example 57, N-[4-(tert-Butyl)-3-(3-morpholin-4-ylpropyl)phenyl][2-(1H-indazol-6-ylamino)(3-pyridyl)]carboxamide]: the IC50 is less than 50 nM.

In the case of `CN1CCN(CCCc2ccc(NC(=O)c3cccnc3Nc3ccc4cn[nH]c4c3)cc2)CC1` [Example 61, [2-(1H-Indazol-6-ylamino)(3-pyridyl)]-N-{4-[3-(4-methylpiperazinyl)propyl]phenyl}carboxamide], the IC50 was less than 50 nM.

For the compound `O=C(Nc1ccc2ccn(CCN3CCOCC3)c2c1)c1cccnc1Nc1ccc2cn[nH]c2c1` [Example 62, [2-(1H-Indazol-6-ylamino)(3-pyridyl)]-N-[1-(2-morpholin-4-ylethyl)indol-6-yl]carboxamide], the IC50 is less than 50 nM.

As for `CC(C)(CCN1CCOCC1)c1ccc(NC(=O)c2cccnc2Nc2ccc3cn[nH]c3c2)cc1` [Example 63, N-[4-(1,1-Dimethyl-3-morpholin-4-ylpropyl)phenyl][2-(1H-indazol-6-ylamino)(3-pyridyl)]carboxamide], the IC50 was less than 50 nM.

`COCCOCCOC(c1ccc(NC(=O)c2cccnc2Nc2ccc3cn[nH]c3c2)cc1)(C(F)(F)F)C(F)(F)F` [Example 64]: the IC50 was less than 50 nM.

Turning to `O=C(Nc1ccc(C(OCCN2CCCCC2)(C(F)(F)F)C(F)(F)F)cc1)c1cccnc1Nc1ccc2cn[nH]c2c1` [Example 65, [2-(1H-Indazol-6-ylamino)(3-pyridyl)]-N-{4-[2,2,2-trifluoro-1-(2-piperidylethoxy)-1-(trifluoromethyl)ethyl]phenyl}carboxamide], the IC50 was less than 50 nM.

For `CC(C)(C)c1ccc(NC(=O)c2ccc(F)nc2Nc2ccc3cn[nH]c3c2)cc1` [Example 66, N-[4-(tert-Butyl)phenyl][6-fluoro-2-(1H-indazol-6-ylamino)(3-pyridyl)]carboxamide], the IC50 is less than 50 nM.

For `CC(C)c1ccc(NC(=O)c2ccc(F)nc2Nc2ccc3cn[nH]c3c2)cc1` [Example 67, [6-Fluoro-2-(1H-indazol-6-ylamino)(3-pyridyl)]-N-[4-(methylethyl)phenyl]carboxamide], the IC50 is less than 50 nM.

Regarding `O=C(Nc1cccc(C(F)(F)F)c1)c1ccc(F)nc1Nc1ccc2cn[nH]c2c1` [Example 68, [6-Fluoro-2-(1H-indazol-6-ylamino)(3-pyridyl)]-N-[3-(trifluoromethyl)phenyl]carboxamide], the IC50 was less than 50 nM.

Turning to `O=C(Nc1cc(CCCN2CCOCC2)cc(C(F)(F)F)c1)c1cccnc1Nc1ccc2cn[nH]c2c1` [Example 70, 2-(1H-Indazol-6-ylamino)-N-[3-(3-morpholin-4-yl-propyl)-5-trifluoromethyl-phenyl]-nicotinamide], the IC50 is less than 50 nM.

Take `O=C(Nc1cc(CCCN2CCCCC2)cc(C(F)(F)F)c1)c1cccnc1Nc1ccc2cn[nH]c2c1` [Example 71, 2-(1H-Indazol-6-ylamino)-N-[3-(3-piperidin-1-yl-propyl)-5-trifluoromethyl-phenyl]-nicotinamide]: the IC50 was less than 50 nM.

On to `CN1CCC(Cc2cc(NC(=O)c3cccnc3Nc3ccc4cn[nH]c4c3)cc(C(F)(F)F)c2)CC1` [Example 72, 2-(1H-Indazol-6-ylamino)-N-[3-(1-methyl-piperidin-4-ylmethyl)-5-trifluoromethyl-phenyl]-nicotinamide], for which the IC50 is less than 50 nM.

Take `O=C(Nc1cc(OC2CCNCC2)cc(C(F)(F)F)c1)c1cccnc1Nc1ccc2cn[nH]c2c1` [Example 74, 2-(1H-Indazol-6-ylamino)-N-[3-(piperidin-4-yloxy)-5-trifluoromethyl-phenyl]-nicotinamide]: the IC50 was less than 50 nM.

As for `O=C(Nc1cc(OCC2CCNCC2)cc(C(F)(F)F)c1)c1cccnc1Nc1ccc2cn[nH]c2c1` [Example 75, 2-(1H-Indazol-6-ylamino)-N-[3-(piperidin-4-ylmethoxy)-5-trifluoromethyl-phenyl]-nicotinamide], the IC50 was less than 50 nM.

Take `CC1(C)NS(=O)(=O)c2cc(NC(=O)c3cccnc3Nc3ccc4cn[nH]c4c3)ccc21` [Example 76, N-(3,3-Dimethyl-1,1-dioxo-2,3-dihydro-1H-116-benzo[d]isothiazol-6-yl)-2-(1H-indazol-6-ylamino)-nicotinamide]: the IC50 was less than 50 nM.

As for `CC1(C)CCC(C)(C)c2cc(NC(=O)c3cccnc3Nc3ccc4cn[nH]c4c3)ccc21` [Example 77, 2-(1H-Indazol-6-ylamino)-N-(5,5,8,8-tetramethyl-5,6,7,8-tetrahydro-naphthalen-2-yl)-nicotinamide], the IC50 is less than 50 nM.

With `CN1CCC(COc2cc(NC(=O)c3cccnc3Nc3ccc4cn[nH]c4c3)ccc2C(F)(F)C(F)(F)F)CC1` [Example 78, 2-(1H-Indazol-6-ylamino)-N-[3-(1-methyl-piperidin-4-ylmethoxy)-4-pentafluoroethyl-phenyl]-nicotinamide], the IC50 was less than 50 nM.

With `CC(C)N1CCC(COc2cc(NC(=O)c3cccnc3Nc3ccc4cn[nH]c4c3)ccc2C(F)(F)C(F)(F)F)CC1` [Example 79, 2-(1H-Indazol-6-ylamino)-N-[3-(1-isopropyl-piperidin-4-ylmethoxy)-4-pentafluoroethyl-phenyl]-nicotinamide], the IC50 is less than 50 nM.

`O=C(Nc1ccc(C(F)(F)C(F)(F)F)c(OC[C@H](O)CN2CCCC2)c1)c1cccnc1Nc1ccc2cn[nH]c2c1` [Example 80, N-[3-(2-Hydroxy-3-pyrrolidin-1-yl-propoxy)-4-pentafluoroethyl-phenyl]-2-(1H-indazol-6-ylamino)-nicotinamide]: the IC50 was less than 50 nM.

Turning to `O=C(Nc1ccc(C(F)(F)C(F)(F)F)c(OCCN2CCCCC2)c1)c1cccnc1Nc1ccc2cn[nH]c2c1` [Example 81, 2-(1H-Indazol-6-ylamino)-N-[4-pentafluoroethyl-3-(2-piperidin-1-yl-ethoxy)-phenyl]-nicotinamide], the IC50 is less than 50 nM.

As for `O=C(Nc1ccc(C(F)(F)C(F)(F)F)c(OC[C@@H](O)CN2CCCC2)c1)c1cccnc1Nc1ccc2cn[nH]c2c1` [Example 82, N-[3-(2-Hydroxy-3-pyrrolidin-1-yl-propoxy)-4-pentafluoroethyl-phenyl]-2-(1H-indazol-6-ylamino)-nicotinamide], the IC50 is less than 50 nM.

On to `O=C(Nc1ccc(C(F)(F)C(F)(F)F)c(OC[C@@H]2CCCN2)c1)c1cccnc1Nc1ccc2cn[nH]c2c1` [Example 83, 2-(1H-Indazol-6-ylamino)-N-[4-pentafluoroethyl-3-(2S-pyrrolidin-2-ylmethoxy)-phenyl]-nicotinamide], for which the IC50 was less than 50 nM.

On to `O=C(Nc1ccc(C(F)(F)C(F)(F)F)c(OC[C@H]2CCCN2)c1)c1cccnc1Nc1ccc2cn[nH]c2c1` [Example 84, 2-(1H-Indazol-6-ylamino)-N-[4-pentafluoroethyl-3-(2R-pyrrolidin-2-ylmethoxy)-phenyl]-nicotinamide], for which the IC50 is less than 50 nM.

Consider `O=C(Nc1ccc(C(F)(F)F)c(OC[C@H]2CCCN2)c1)c1cccnc1Nc1ccc2cn[nH]c2c1` [Example 85, 2-(1H-Indazol-6-ylamino)-N-[3-(pyrrolidin-2-ylmethoxy)-4-trifluoromethyl-phenyl]-nicotinamide], for which the IC50 is less than 50 nM.

As to `O=C(Nc1ccc(C(F)(F)F)c(OCCN2CCCC2)c1)c1cccnc1Nc1ccc2cn[nH]c2c1` [Example 86, 2-(1H-Indazol-6-ylamino)-N-[3-(2-pyrrolidin-1-yl-ethoxy)-4-trifluoromethyl-phenyl]-nicotinamide], the IC50 was less than 50 nM.
